This note sets out measurements from publication PMC10302753, “Natural-Product-Inspired Microwave-Assisted Synthesis of Novel Spirooxindoles as Antileishmanial Agents: Synthesis, Stereochemical Assignment, Bioevaluation, SAR, and Molecular Docking Studies” (Molecules, 2023).

pIC50: −log10 of the molar value. “Also recorded” adds a separate entry of the source. Like-named read-outs stand apart in the source and are kept apart here. Where only a bound is given, the exact number is not on record here.

The target in data set [1] is Leishmania DNA topoisomerase type IB (purified recombinant LTopIB) (Leishmania donovani, UniProt A0A3Q8IHS4+Q8WQM6). The data set is described as follows: Plasmid relaxation assay (relaxation of supercoiled plasmid DNA). Format: biochemical. The conditions noted are these: for LTopIB inhibition, result in words: recombinant enzyme in vitro, initial test at 100 µM, then dose/response. The procedure: The relaxation of supercoiled plasmid DNA is the method used for the determination of LTopIB activity. Various doses of each compound were treated with one unit of pure LTopIB (the enzyme to relax 0.5 µg of supercoiled DNA for 30 min at 37 °C) for 20 min at 4 °C. The reaction mixture, including 0.5 μg of supercoiled pBluescript SK(−) plasmid, 10 mM Tris-HCl buffer pH 7.5, 5 mM MgCl2, 0.1 mM EDTA, 15 µg/mL of bovine serum albumin, and 150 mM KCl, was then added in a final volume of 20 μL. After 30 min at 37 °C, the reaction mixtures were stopped by adding 4 μL of loading buffer, which included 5% sarkosyl, 0.12% bromophenol blue, and 25% glycerol. By electrophoresis, the topoisomers were separated on 1% agarose gels and electrophoresed at 2 V/cm for 16 h in a 0.1 M Tris-borate-EDTA buffer (pH 8.0) after being stained with ethidium bromide (0.5 µg/mL). Plotting the percentage of supercoiled DNA versus drug concentrations allowed researchers to determine the 50% inhibition concentration (IC50) values of LTopIB inhibition as the 50% reduction of supercoiled DNA [72].
Because of the presence of spirooxindole systems in the structure of these compounds, we aimed to assess their inhibitory potential on purified recombinant LTopIB measuring the relaxation of supercoiled plasmid DNA. In this regard, all spirooxindole derivatives were assessed for LTopIB inhibition through the prevention of DNA relaxation in a circular DNA plasmid. […] After this initial test, potential inhibitor dose/response curves were performed to obtain their IC50 values. […]
The relaxation of supercoiled plasmid DNA is the method used for the determination of LTopIB activity.
Various doses of each compound were treated with one unit of pure LTopIB (the enzyme to relax 0.5 µg of supercoiled DNA for 30 min at 37 °C) for 20 min at 4 °C. The reaction mixture including 0.5 μg of supercoiled pBluescript SK(−) plasmid, 10 mM Tris-HCl buffer pH 7.5, 5 mM MgCl2, 0.1 mM EDTA, 15 µg/mL bovine serum albumin, and 150 mM KCl was then added in a final volume of 20 μL. After 30 minutes at 37 °C, the reaction mixtures were stopped by adding 4 μL of loading buffer, which included 5% sarkosyl, 0.12% bromophenol blue, and 25% glycerol. By electrophoresis, the topoisomers were separated in 1% agarose gels were electrophoresed at 2 V/cm for 16 hours in a 0.1 M Tris-borate-EDTA buffer (pH 8.0) after being stained with ethidium bromide (0.5 µg/mL). Plotting the percentage of supercoiled DNA versus drug concentrations allowed researchers to determine the 50% inhibition concentration (IC50) values of LTopIB inhibition as the 50% reduction of supercoiled DNA. […]

The subject of data set [2] is promastigotes of Leishmania donovani (MHOM/IN/1983/AG83). Description: In vitro antileishmanial activity, Trypan blue dye exclusion method. Type of data set: cell-based. The following applies: 72 h, L. donovani promastigotes, 22 ± 1 °C, 50% growth inhibition, read-out: IC50 Using Trypan Blue Dye Exclusion Method. On the procedure:
The compounds (23a–f, 24a–f, and 25a–g) were initially screened for their in vitro antileishmanial activity against promastigotes of Leishmania donovani (MHOM/IN/1983/AG83) utilizing the Trypan blue dye exclusion method and the plasmid relaxation assay using amphotericin B and camphothesin as standard reference drugs, respectively.
The promastigotes were harvested from the culture vials, counted, and 2 × 10^6 cells/well were seeded in a 48-well culture plate. The antileishmanial screening of all the derivatives, 23a–f, 24a–f, and 25a–g, as well as the positive control, was performed at various concentrations (2 μg/mL, 4 μg/mL, 8 μg/mL, and 16 μg/mL) added in triplicate. The plate was incubated at 22 ± 1 °C in the BOD incubator for 72 h. After 72 h, each well was counted for the number of viable parasites using the Trypan blue dye exclusion method, and the percentage growth inhibition was calculated by using the formula: Percentage viability=No. of viable cells in treated well/No. of viable cells in blank well×100 Percentage growth inhibition = 100 − percentage viability […]
The IC50 (inhibitory concentration at which 50% of the parasites were dead) value was obtained by plotting a linear dose–response curve in SPSS software (Version 23). […]
Parasite strain and culture conditions:
The SSG-sensitive Indian strain of Leishmania donovani (MHOM/IN/1983/AG83) obtained from CSIR-IICB, Kolkata, was used for the study. The promastigotes of these strains were maintained in Medium 199+10% FCS (Foetal Calf Serum) by serial sub-culturing at an ambient temperature of 22±1°C every 72 […]
In vitro antileishmanial activity
Trypan blue dye exclusion method
For carrying out the antileishmanial activity in vitro, promastigotes of Leishmania donovani were used.
The promastigotes were harvested from the culture vials, counted, and 2 × 10^6 cells/well were seeded in a 48-well culture plate. Further, compounds at various concentrations (2 μg/mL, 4 μg/mL, 8 μg/mL and 16 μg/mL) were added in triplets. No drug was added to the well serving as a blank, and amphotericin B was added to the well serving as the positive control. The plate was incubated at 22 ± 1°C in the BOD incubator for 72 hours. After 72 hours, each well was counted for the number of viable parasites using the trypan blue dye exclusion method, and the percentage growth inhibition was calculated by using the formula:
Percentage growth inhibition = 100 – percentage viability
IC50 (inhibitory concentration at which 50% of the parasites were dead) was obtained by plotting a linear dose-response curve in SPSS software (Version 23). […]
8.0) after being stained with ethidium bromide (0.5 µg/mL). Plotting the percentage of supercoiled DNA versus drug concentrations allowed researchers to determine the 50% inhibition concentration (IC50) values of LTopIB inhibition as the 50% reduction of supercoiled DNA.
Characterization data of spirooxindole derivatives (23a-f, 24a-f, 25a-g).
(1'S,2'R,3S,7a'S)-1'-(4-chlorophenyl)-2'-(4-fluorobenzoyl)-5-methyl-1',2',5',6',7',7a'-hexahydrospiro [indoline-3,3'-pyrrolizin]-2-one (23a): The product was synthesized utilizing the microwave-irradiated approach, and purified by column chromatography over silica gel using hexane/EtOAc (8:2) as an eluent; Physical Appearance: light yellow solid; Yield: 98%; Rf (EtOAc/hexane: 1:1) = 0.48; m.p. 182-184 °C; […]
(1'S,2'R,3S,7a'S)-5-fluoro-2'-(4-fluorobenzoyl)-1'-(4-methoxyphenyl)-1',2',5',6',7',7a'-hexahydro spiro[indoline-3,3'-pyrrolizin]-2-one (23b): The product was synthesized utilizing the microwave-irradiated approach, and purified by column chromatography over silica gel using hexane/EtOAc (7:3) as an eluent; Physical Appearance: light yellow solid; Yield: 66%; Rf (EtOAc/hexane: 1:1) = 0.45; m.p. 161-

Where [3] appears, read: LTopIB inhibition, 50% reduction of supercoiled DNA, read-out: IC50 Using Plasmid Relaxation Assay.

A word on the melting point: it is the temperature of the solid-liquid transition. A word on the pIC50: it is the negative decadic logarithm of the IC50, by convention in mol/L.

Chain of Leishmania DNA topoisomerase type IB (purified recombinant LTopIB) (Q8WQM6 entry or part of it): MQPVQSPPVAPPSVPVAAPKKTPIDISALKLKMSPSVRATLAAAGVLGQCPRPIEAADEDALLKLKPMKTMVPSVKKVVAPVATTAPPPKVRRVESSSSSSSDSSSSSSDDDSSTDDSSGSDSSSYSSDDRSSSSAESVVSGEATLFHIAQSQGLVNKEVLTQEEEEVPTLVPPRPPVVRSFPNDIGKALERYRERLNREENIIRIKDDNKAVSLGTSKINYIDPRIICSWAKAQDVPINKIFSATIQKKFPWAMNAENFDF
Chain of Leishmania DNA topoisomerase type IB (purified recombinant LTopIB) (A0A3Q8IHS4 entry or part of it): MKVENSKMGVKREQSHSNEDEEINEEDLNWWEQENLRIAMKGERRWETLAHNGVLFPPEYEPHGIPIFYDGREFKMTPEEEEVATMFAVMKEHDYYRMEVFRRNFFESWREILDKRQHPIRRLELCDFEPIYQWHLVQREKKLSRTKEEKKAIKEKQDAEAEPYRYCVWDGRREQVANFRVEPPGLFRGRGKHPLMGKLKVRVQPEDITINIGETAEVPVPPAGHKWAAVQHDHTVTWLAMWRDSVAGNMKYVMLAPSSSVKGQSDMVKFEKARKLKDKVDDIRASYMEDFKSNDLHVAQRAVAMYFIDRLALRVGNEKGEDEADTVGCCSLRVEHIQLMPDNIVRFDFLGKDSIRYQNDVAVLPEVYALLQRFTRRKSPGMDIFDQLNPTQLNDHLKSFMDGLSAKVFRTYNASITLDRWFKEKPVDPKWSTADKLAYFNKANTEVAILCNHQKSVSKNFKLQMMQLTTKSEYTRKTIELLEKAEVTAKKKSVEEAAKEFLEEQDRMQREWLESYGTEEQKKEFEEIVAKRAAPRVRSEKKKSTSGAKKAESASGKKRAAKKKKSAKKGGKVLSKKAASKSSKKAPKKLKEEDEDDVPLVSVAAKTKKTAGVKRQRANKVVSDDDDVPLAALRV

`COc1ccc([C@@H]2[C@@H](C(=O)c3ccc(F)cc3)[C@]3(C(=O)Nc4ccc(F)cc43)N3CCC[C@@H]23)cc1` [23b, (1'S,2'R,3S,7a'S)-5-fluoro-2'-(4-fluorobenzoyl)-1'-(4-methoxyphenyl)-1',2',5',6',7',7a'-hexahydrospiro[indoline-3,3'-pyrrolizin]-2-one]: the melting point was in the range of 161 to 163 °C. Besides, in data set [1] (setting [3]), the pIC50 is < 4.00. For the same molecule, the pIC50 in data set [2] (Leishmania donovani) is < 4.70.

As to `COc1ccc(C2C3CCCN3C3(C(=O)Nc4ccc(F)cc43)C2C(=O)c2ccc(Br)cc2)cc1` (stereo not shown) [23c], the melting point lay within 126 to 128 °C. Besides, the negative logarithm of the IC50 (pIC50) in data set [1] (setting [3]) is < 4.00. Further, the negative logarithm of the IC50 (pIC50) in data set [2] (Leishmania donovani) is < 4.70.

`COc1ccc(C2C3CCCN3C3(C(=O)Nc4ccc(OC)cc43)C2C(=O)c2ccc(Br)cc2)cc1` (stereo not shown) [23d]: the melting point lay in the range of 107 to 109 °C. Besides, the negative-log IC50 (pIC50) in data set [1] (setting [3]) was 4.27. Further, in data set [2], the pIC50 is 5.11. Besides, the pIC50 in data set [2] (Leishmania donovani) is ≥ 5.00.

The molecule `COc1ccc(C2C3CCCN3C3(C(=O)Nc4ccc([N+](=O)[O-])cc43)C2C(=O)c2ccc(Br)cc2)cc1` (stereo not shown) [23e] came in with a melting point of 111 to 113 °C. Further, the pIC50 in data set [1] (setting [3]) was < 4.00. In data set [2] (Leishmania donovani), the pIC50 was < 4.70.

For `O=C(c1ccccc1)[C@@H]1[C@@H](c2ccccc2)[C@@H]2CCCN2[C@@]12C(=O)Nc1ccc(Br)cc12` [23f, (1′S,2′R,3S,7a’S)-2′-benzoyl-5-bromo-1′-phenyl-1′,2′,5′,6′,7′,7a’-hexahydrospiro[indolin-3,3′-pyrrolizin]-2-one], the melting point was in the range of 175 to 177 °C. The pIC50 in data set [1] (setting [3]) is < 4.00. In data set [2] (Leishmania donovani), the negative-log IC50 (pIC50) was < 4.70.

`COc1ccc2c(c1)[C@]1(N[C@@H](Cc3ccccc3)[C@H](c3ccc(Cl)cc3)[C@H]1C(=O)c1ccc([N+](=O)[O-])cc1)C(=O)N2` [24a]: the negative logarithm of the IC50 (pIC50) was 4.76 in data set [1] (setting [3]) and 5.61 in data set [2] (Leishmania donovani). For the same molecule, the “LTopIB inhibition, result in words” value in data set [1] is listed as “showed potential results; also recorded: potent LTopIB inhibitors; also recorded: able to inhibit the recombinant enzyme in vitro”.

`Cc1ccc(C(=O)[C@@H]2[C@@H](c3ccc(Br)cc3)[C@H](Cc3ccccc3)N[C@@]23C(=O)Nc2ccc([N+](=O)[O-])cc23)cc1` [24b] returned a melting point of 121 to 122 °C. In addition, the pIC50 in data set [1] (setting [3]) is 4.42. For the same molecule, the pIC50 in data set [2] is 5.27. Also, the pIC50 in data set [2] (Leishmania donovani) is ≥ 5.00.

`Cc1ccc2c(c1)[C@]1(N[C@@H](Cc3ccccc3)[C@H](c3ccc(Cl)cc3)[C@H]1C(=O)c1ccc([N+](=O)[O-])cc1)C(=O)N2` [24c] gave a melting point of 135 to 137 °C. The pIC50 in data set [1] (setting [3]) was < 4.00. Further, the pIC50 in data set [2] (Leishmania donovani) was < 4.70.

For `O=C(c1ccc([N+](=O)[O-])cc1)[C@@H]1[C@@H](c2ccc(Cl)cc2)[C@H](Cc2ccccc2)N[C@@]12C(=O)Nc1c(Br)cccc12` [24e], the pIC50 in data set [1] (setting [3]) was 4.80; in data set [2] (Leishmania donovani) it was 6.02. The “LTopIB inhibition, result in words” value in data set [1] was “showed potential results; also recorded: potent LTopIB inhibitors; also recorded: able to inhibit the recombinant enzyme in vitro”.

Consider `Cc1ccc(C(=O)C2C(c3ccc(Br)cc3)C(Cc3ccccc3)NC23C(=O)Nc2ccc(I)cc23)cc1` (stereo not shown) [24f], for which the negative logarithm of the IC50 (pIC50) in data set [1] (setting [3]) is 4.71; in data set [2] (Leishmania donovani), 5.79. For the same molecule, the “LTopIB inhibition, result in words” value in data set [1] is recorded as “showed potential results; also recorded: potent LTopIB inhibitors; also recorded: able to inhibit the recombinant enzyme in vitro”.

The molecule `COc1ccc(C2C(Cc3cc4ccccc4[nH]3)NC3(C(=O)Nc4ccc(Br)cc43)C2C(=O)c2ccc(F)cc2)cc1` (stereo not shown) [25a] registered a melting point of 154 to 156 °C.

For the molecule `O=C(c1ccc(F)cc1)C1C(c2ccc(Cl)cc2)C(Cc2cc3ccccc3[nH]2)NC12C(=O)Nc1ccc(Br)cc12` (stereo not shown) [25c], the melting point is 138 to 140 °C.

Consider `COc1ccc(C2C(Cc3c[nH]c4ccccc34)NC3(C(=O)Nc4ccc(F)cc43)C2C(=O)c2ccc(C3CCCCC3)cc2)cc1` (stereo not shown) [25d], for which the pIC50 was 4.57 in data set [1] (setting [3]) and 5.45 in data set [2] (Leishmania donovani). The “LTopIB inhibition, result in words” value in data set [1] is reported as “showed potential results; also recorded: potent LTopIB inhibitors; also recorded: able to inhibit the recombinant enzyme in vitro”.

Turning to `COc1ccc(C2C(Cc3cc4ccccc4[nH]3)NC3(C(=O)Nc4ccc(C)cc43)C2C(=O)c2ccc(F)cc2)cc1` (stereo not shown) [25e], the melting point fell in the range of 103 to 105 °C.

For `O=C(c1ccc(F)cc1)C1C(c2ccc(Cl)cc2)C(Cc2cc3ccccc3[nH]2)NC12C(=O)Nc1ccc([N+](=O)[O-])cc12` (stereo not shown) [25f], the melting point was in the range of 172 to 174 °C.

Molecule `COc1ccc2c(c1)C1(NC(Cc3cc4ccccc4[nH]3)C(c3ccc(Cl)cc3)C1C(=O)c1ccc(F)cc1)C(=O)N2` (stereo not shown) [25g] yielded a melting point of 142 to 145 °C.

Regarding `C[C@@H]1[C@H](O)[C@@H](C)/C=C/C=C/C=C/C=C/C=C/C=C/C=C/[C@H](O[C@@H]2O[C@H](C)[C@@H](O)[C@H](N)[C@@H]2O)C[C@@H]2O[C@](O)(C[C@@H](O)C[C@@H](O)[C@H](O)CC[C@@H](O)C[C@@H](O)CC(=O)O[C@H]1C)C[C@H](O)[C@H]2C(=O)O` [Amphotericin B, reference compound], the pIC50 in data set [2] (Leishmania donovani) is 7.22.

Take `CC[C@@]1(O)C(=O)OCc2c1cc1n(c2=O)Cc2cc3ccccc3nc2-1` [Camptothecin, reference compound]: the pIC50 in data set [1] was 5.52.

The molecule `CN(C)c1ccc(/C=N/N2C(=O)C(C#N)=CC23c2ccccc2NC2C=CC=CC23)cc1` (stereo not shown) [compound 18] had a melting point of 172 to 174 °C.
